Results as given in PubChem BioAssay AID1963837 (Molecular Pharmacology Branch, DTP, NCI, 2024).

system: 843126-344-R-J1-PDC complex spheroid viability; experiment: Anticancer human tumor 843126-344-R-J1-PDC patient-derived melanoma cell line growth inhibition [POLQ]; settings: second compound 0.316 µM; first compound 0.1 µM; stronger effect = lower value
Experimental: Multicellular complex tumor spheroid response to Polymerase (POL) inhibitors (novobiocin, ART-558, RP6685) in combination with a variety of drugs and investigational agents in selected tumor cell lines
The POL inhibitors (novobiocin, ART-558, and RP6685) were evaluated both individually and in combination with standard of care and investigational anticancer small molecules within a complex spheroid model of solid tumors. . Complex spheroids include a stromal component modeled by human endothelial cells (HUVEC) and fibroblasts modeled by human mesenchymal stem cells (MSCs). The concentration ranges selected for each drug and investigational agent were based upon clinically achievable concentrations if the clinical Cmax of the agent was known.
Compounds. The drugs and investigational agents: novobiocin (NSC847541), ART-558 (NSC835418), RP-6685 (NSC848927), peposertib (NSC802822), ceralasertib (NSC780249), elimusertib (NSC800525), camonsertib (NSC841442), AZD-1390 (NSC803789), olaparib (NSC753686), talazoparib (NSC767125), rucaparib (NSC756644), sotorasib (NSC818433), MRTX-1133 (NSC836407), SN-38 (NSC673596), topotecan (NSC609699), epotoside (NSC141540), doxorubicin (NSC123127), gemcitabine (NSC613327), 5-fluorouracil (NSC19893), paclitaxel (NSC125973), vemurafenib (NSC761431), MSA-2 (NSC828583), SN-011 (NSC837082), adavosertib (NSC754352), prexasertib (NSC758257), carboplatin (NSC241240) and oxaliplatin (NSC266046), were obtained from the National Cancer Institute (NCI) Developmental Therapeutics Program Chemical Repository (21). The FDA-approved anticancer drug set is available from the Developmental Therapeutics Program at https://dtp.cancer.gov/organization/dscb/obtaining/. […] The stock solutions were prepared in dimethyl sulfoxide (DMSO, Sigma-Aldrich, St. Louis, MO, cat. D2650), except for the platinum compounds which were prepared in saline (Quality Biological, Gaithersburg, MD, cat. 114-055-101), at 800-fold the tested concentration and stored at -70 degrees C prior to their use. All drugs and investigational agents were tested over a range starting from a high concentration at or near the clinical Cmax and decreasing in half-log increments. If the clinical Cmax for an agent had not been determined, the highest concentration tested was 10 microM, except for SN-38, which was tested at a high concentration of 1 microM.
Cell Culture. All cells were maintained in an incubator at 37 degrees C and 5% CO2 with 95% humidity. The PDC lines were cultured according to standard operating procedures established by the NCI PDMR (https://pdmr.cancer.gov). Table 3 of the manuscript, lists the cell lines along with the number of the three cell types plated to form the mct-spheroids and media for tumor cell growth. After thawing, all PDC lines, except 997537-175-T-J1-PDC and 415267-285-R-J2-PDC, were cultured in Matrigel-coated flasks prepared with a working solution of 1X Ham's F-12 nutrient mix, without supplementation (Thermo Fisher Scientific, cat. 11765054), 100 U/mL penicillin-streptomycin (Thermo Fisher Scientific, cat. 15140122), and 2.5% Matrigel (Corning Inc., Corning, NY, cat. 354248) for the first three passages. The two PDC lines 997537-175-T-J1-PDC and 415267-285-R-J2-PDC were cultured on uncoated flasks. The 857933-349-R-J2-PDC line was cultured in 6C/Colon 1B media containing advanced DMEM/F-12 (Thermo Fisher Scientific, cat. 12634028), 10 mM HEPES (Thermo Fisher Scientific, cat. 15630080), 1X GlutaMAX supplement (Thermo Fisher Scientific, cat. 35050061), 0.1 mg/mL primocin (InvivoGen, San Diego, CA, cat. ant-pm-2), 10% defined fetal bovine serum, heat inactivated (HyClone Laboratories Inc., Logan, UT, cat. SH30070.03HI), 50% L-WRN conditioned media (ATCC, cat. CRL-3276), 1.25 mM N-Acetyl-L-cysteine (Sigma-Aldrich, cat. A9165), 10 mM nicotinamide (Sigma-Aldrich, cat. N0636), 1X B-27 supplement (Thermo Fisher Scientific, cat. 17504044), 1X N-2 supplement (Thermo Fisher Scientific, cat. […]
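Further: spheroids exposed to drugs for seven days before readout.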

Row | Compound | viability, T/C
1 | O=C(Nc1ccc(O)c(NS(=O)(=O)c2ccc(F)cc2)c1)c1ccc(-c2ccccc2)cc1 + Cc1cccc(N(C)C(=O)C2C(O)CCN2c2nc(C)cc(C(F)(F)F)c2C#N)c1 | 88.2%
2 | COc1cccc2c1C(=O)c1c(O)c3c(c(O)c1C2=O)CC(O)(C(=O)CO)CC3OC1CC(N)C(O)C(C)O1 (stereo not drawn) + Cc1cccc(N(C)C(=O)C2C(O)CCN2c2nc(C)cc(C(F)(F)F)c2C#N)c1 | 60.7%
3 | COc1ccc([C@@H](O)c2cc(-c3ncnc4cc(N5CCOCC5)ccc34)c(F)cc2Cl)nn1 + Cc1cccc(N(C)C(=O)C2C(O)CCN2c2nc(C)cc(C(F)(F)F)c2C#N)c1 | 102%

same assay, conditions: second compound 0.316 µM; first compound 0.316 µM; stronger effect = lower value

Row | Compound | viability, T/C
4 | O=C(Nc1ccc(O)c(NS(=O)(=O)c2ccc(F)cc2)c1)c1ccc(-c2ccccc2)cc1 + Cc1cccc(N(C)C(=O)C2C(O)CCN2c2nc(C)cc(C(F)(F)F)c2C#N)c1 | 103%
5 | COc1cccc2c1C(=O)c1c(O)c3c(c(O)c1C2=O)CC(O)(C(=O)CO)CC3OC1CC(N)C(O)C(C)O1 (stereo not drawn) + Cc1cccc(N(C)C(=O)C2C(O)CCN2c2nc(C)cc(C(F)(F)F)c2C#N)c1 | 38.6%
6 | COc1ccc([C@@H](O)c2cc(-c3ncnc4cc(N5CCOCC5)ccc34)c(F)cc2Cl)nn1 + Cc1cccc(N(C)C(=O)C2C(O)CCN2c2nc(C)cc(C(F)(F)F)c2C#N)c1 | 92.2%

same assay, conditions: second compound 0.316 µM; first compound 1 µM; stronger effect = lower value

Row | Compound | viability, T/C
7 | O=C(Nc1ccc(O)c(NS(=O)(=O)c2ccc(F)cc2)c1)c1ccc(-c2ccccc2)cc1 + Cc1cccc(N(C)C(=O)C2C(O)CCN2c2nc(C)cc(C(F)(F)F)c2C#N)c1 | 99.2%
8 | COc1cccc2c1C(=O)c1c(O)c3c(c(O)c1C2=O)CC(O)(C(=O)CO)CC3OC1CC(N)C(O)C(C)O1 (stereo not drawn) + Cc1cccc(N(C)C(=O)C2C(O)CCN2c2nc(C)cc(C(F)(F)F)c2C#N)c1 | 10.6%
9 | COc1ccc([C@@H](O)c2cc(-c3ncnc4cc(N5CCOCC5)ccc34)c(F)cc2Cl)nn1 + Cc1cccc(N(C)C(=O)C2C(O)CCN2c2nc(C)cc(C(F)(F)F)c2C#N)c1 | 102%

same assay, conditions: second compound 0.316 µM; first compound 3.16 µM; stronger effect = lower value

Row | Compound | viability, T/C
10 | O=C(Nc1ccc(O)c(NS(=O)(=O)c2ccc(F)cc2)c1)c1ccc(-c2ccccc2)cc1 + Cc1cccc(N(C)C(=O)C2C(O)CCN2c2nc(C)cc(C(F)(F)F)c2C#N)c1 | 84.8%
11 | COc1cccc2c1C(=O)c1c(O)c3c(c(O)c1C2=O)CC(O)(C(=O)CO)CC3OC1CC(N)C(O)C(C)O1 (stereo not drawn) + Cc1cccc(N(C)C(=O)C2C(O)CCN2c2nc(C)cc(C(F)(F)F)c2C#N)c1 | 3.96%
12 | COc1ccc([C@@H](O)c2cc(-c3ncnc4cc(N5CCOCC5)ccc34)c(F)cc2Cl)nn1 + Cc1cccc(N(C)C(=O)C2C(O)CCN2c2nc(C)cc(C(F)(F)F)c2C#N)c1 | 76.9%

same assay, conditions: second compound 0.316 µM; first compound 10 µM; stronger effect = lower value

Row | Compound | viability, T/C
13 | O=C(Nc1ccc(O)c(NS(=O)(=O)c2ccc(F)cc2)c1)c1ccc(-c2ccccc2)cc1 + Cc1cccc(N(C)C(=O)C2C(O)CCN2c2nc(C)cc(C(F)(F)F)c2C#N)c1 | 70.2%
14 | COc1cccc2c1C(=O)c1c(O)c3c(c(O)c1C2=O)CC(O)(C(=O)CO)CC3OC1CC(N)C(O)C(C)O1 (stereo not drawn) + Cc1cccc(N(C)C(=O)C2C(O)CCN2c2nc(C)cc(C(F)(F)F)c2C#N)c1 | 3.01%
15 | COc1ccc([C@@H](O)c2cc(-c3ncnc4cc(N5CCOCC5)ccc34)c(F)cc2Cl)nn1 + Cc1cccc(N(C)C(=O)C2C(O)CCN2c2nc(C)cc(C(F)(F)F)c2C#N)c1 | 80.9%

same assay, conditions: second compound 1 µM; first compound 0.0316 µM; stronger effect = lower value

Row | Compound | viability, T/C
16 | O=C(Nc1ccc(O)c(NS(=O)(=O)c2ccc(F)cc2)c1)c1ccc(-c2ccccc2)cc1 + Cc1cccc(N(C)C(=O)C2C(O)CCN2c2nc(C)cc(C(F)(F)F)c2C#N)c1 | 95.7%
17 | COc1cccc2c1C(=O)c1c(O)c3c(c(O)c1C2=O)CC(O)(C(=O)CO)CC3OC1CC(N)C(O)C(C)O1 (stereo not drawn) + Cc1cccc(N(C)C(=O)C2C(O)CCN2c2nc(C)cc(C(F)(F)F)c2C#N)c1 | 90.8%
18 | COc1ccc([C@@H](O)c2cc(-c3ncnc4cc(N5CCOCC5)ccc34)c(F)cc2Cl)nn1 + Cc1cccc(N(C)C(=O)C2C(O)CCN2c2nc(C)cc(C(F)(F)F)c2C#N)c1 | 79.2%

same assay, conditions: second compound 1 µM; first compound 0.1 µM; stronger effect = lower value

Row | Compound | viability, T/C
19 | O=C(Nc1ccc(O)c(NS(=O)(=O)c2ccc(F)cc2)c1)c1ccc(-c2ccccc2)cc1 + Cc1cccc(N(C)C(=O)C2C(O)CCN2c2nc(C)cc(C(F)(F)F)c2C#N)c1 | 88.1%
20 | COc1cccc2c1C(=O)c1c(O)c3c(c(O)c1C2=O)CC(O)(C(=O)CO)CC3OC1CC(N)C(O)C(C)O1 (stereo not drawn) + Cc1cccc(N(C)C(=O)C2C(O)CCN2c2nc(C)cc(C(F)(F)F)c2C#N)c1 | 69.5%
21 | COc1ccc([C@@H](O)c2cc(-c3ncnc4cc(N5CCOCC5)ccc34)c(F)cc2Cl)nn1 + Cc1cccc(N(C)C(=O)C2C(O)CCN2c2nc(C)cc(C(F)(F)F)c2C#N)c1 | 101%

same assay, conditions: second compound 1 µM; first compound 0.316 µM; stronger effect = lower value

Row | Compound | viability, T/C
22 | O=C(Nc1ccc(O)c(NS(=O)(=O)c2ccc(F)cc2)c1)c1ccc(-c2ccccc2)cc1 + Cc1cccc(N(C)C(=O)C2C(O)CCN2c2nc(C)cc(C(F)(F)F)c2C#N)c1 | 96.6%
23 | COc1cccc2c1C(=O)c1c(O)c3c(c(O)c1C2=O)CC(O)(C(=O)CO)CC3OC1CC(N)C(O)C(C)O1 (stereo not drawn) + Cc1cccc(N(C)C(=O)C2C(O)CCN2c2nc(C)cc(C(F)(F)F)c2C#N)c1 | 39.7%
